From ChEMBL document CHEMBL6153155, “Novel Cyclohexyl Amido Acid Antagonists of Lysophosphatidic Acid Type 1 Receptor for the Treatment of Pulmonary Fibrosis” (ACS Med Chem Lett, 2025)
≈ marks a conversion by molar mass, not a printed value.

Tests used:
[1] = molecular target: Lysophosphatidic acid receptor 1 (Homo sapiens, UniProt Q92633); assay: Antagonist activity at human LPA1 expressed in CHO cells incubated for 30 mins by FLIPR-based calcium mobilization assay
[2] = Lipophilicity, logD of compound at pH 7.4 by chromatographic hydrophobicity index method; type: physicochemical; details: buffer
[3] = Metabolic stability in female C57BL/6J mouse liver microsomes assessed as intrinsic clearance measured per mg of protein at 0.5 uM measured upto 45 mins in presence of NADPH regenerating system by HPLC-MS/MS analysis; type: ADME, Microsome; details: read-out: CLH
[4] = Metabolic stability in human liver microsomes assessed as intrinsic clearance measured per mg of protein at 0.5 uM measured upto 45 mins in presence of NADPH regenerating system by HPLC-MS/MS analysis; type: ADME, Microsome; details: read-out: CLH
[5] = molecular target: BSEP (Homo sapiens, UniProt O95342); assay: Inhibition of BSEP in cryopreserved sandwich-cultured human hepatocytes by measuring reduction in TCA biliary clearance using taurocholic acid as substrate at 50 uM relative to control; type: cell-based, Hepatocyte; details: cryopreserved sandwich-cultured hepatocytes, probe taurocholic acid
[6] = molecular target: Lysophosphatidic acid receptor 1 (Mus musculus, UniProt P61793); assay: Antagonist activity at mouse LPA1 transfected in human HeLa cells incubated for 30 mins by FLIPR-based calcium mobilization assay; type: cell-based
[7] = Aqueous solubility of the compound at pH 7.4; type: physicochemical; details: buffer
[8] = molecular target: Bile salt export pump (Homo sapiens, UniProt O95342); assay: Inhibition of BSEP in cryopreserved sandwich-cultured human hepatocytes by measuring reduction in TCA biliary clearance using taurocholic acid as substrate; type: cell-based, Hepatocyte
[9] = test system: Mus musculus; assay: Inhibition of LPA-stimulated histamine release in male CD1 mouse plasma assessed as effective dose administered as po dose pretreated for 30 mins followed by LPA addition measured after 2 mins by enzyme immunoassay; type: functional; details: 32 min
[10] = Antiproliferative activity against LPA treated human HLF cells preincubated for 1 hr followed by LPA stimulation and measured after 24 hrs by BrdU assay; details: read-out: pIC50 (converted)
[11] = Clearance in female C57BL/6J mouse at 2 mg/kg, iv measured after 24 hrs by UPLC-MS/MS analysis; type: ADME, organism-based; details: in vivo
[12] = Volume of distribution at steady state in female C57BL/6J mouse at 2 mg/kg, iv measured after 24 hrs by UPLC-MS/MS analysis; type: ADME, organism-based; details: in vivo, read-out: Vdss
[13] = Oral bioavailability in female C57BL/6J mouse at 2 mg/kg, iv measured after 24 hrs by UPLC-MS/MS analysis; type: ADME, organism-based; details: in vivo
[14] = Half life in female C57BL/6J mouse at 2 mg/kg, iv measured after 24 hrs by UPLC-MS/MS analysis; type: ADME, organism-based; details: in vivo
[15] = Total Cmax in female C57BL/6J mouse plasma at 30 mg/kg, po measured after 24 hrs by UPLC-MS/MS analysis; type: ADME, organism-based
[16] = Unbound Cmax in female C57BL/6J mouse plasma at 30 mg/kg, po measured after 24 hrs by UPLC-MS/MS analysis; type: ADME, organism-based; details: in vivo
[17] = Total AUClast in female C57BL/6J mouse plasma at 30 mg/kg, po measured after 24 hrs by UPLC-MS/MS analysis; type: ADME, organism-based; details: in vivo
[18] = Unbound AUClast in female C57BL/6J mouse plasma at 30 mg/kg, po measured after 24 hrs by UPLC-MS/MS analysis; type: ADME, organism-based; details: in vivo
[19] = Tlast in female C57BL/6J mouse plasma at 30 mg/kg, po measured after 24 hrs by UPLC-MS/MS analysis; type: ADME, organism-based; details: in vivo
[20] = Total Cmax in female C57BL/6J mouse lung at 30 mg/kg, po measured after 24 hrs by UPLC-MS/MS analysis; type: ADME, organism-based
[21] = Unbound Cmax in female C57BL/6J mouse lung at 30 mg/kg, po measured after 24 hrs by UPLC-MS/MS analysis; type: ADME, organism-based; details: in vivo
[22] = Total AUClast in female C57BL/6J mouse lung at 30 mg/kg, po measured after 24 hrs by UPLC-MS/MS analysis; type: ADME, organism-based; details: in vivo
[23] = Unbound AUClast in female C57BL/6J mouse lung at 30 mg/kg, po measured after 24 hrs by UPLC-MS/MS analysis; type: ADME, organism-based; details: in vivo
[24] = Tlast in female C57BL/6J mouse lung at 30 mg/kg, po measured after 24 hrs by UPLC-MS/MS analysis; type: ADME, organism-based; details: in vivo
[25] = molecular target: Phosphatidylcholine translocator ABCB4 (Homo sapiens, UniProt P21439); assay: Inhibition of MDR3 in human hepatocytes in the presence of TCA incubated for 3 hrs by LC-MS/MS; type: cell-based, Hepatocyte
[26] = molecular target: ATP-binding cassette sub-family C member 2 (Homo sapiens, UniProt Q92887); assay: Inhibition of MRP2 (unknown origin) in presence of ATP by membrane vesicular transport assay; type: cell membranes, Membrane vesicle
[27] = molecular target: ATP-binding cassette sub-family C member 3 (Homo sapiens, UniProt O15438); assay: Inhibition of MRP3 (unknown origin) in presence of ATP by membrane vesicular transport assay; type: cell membranes, Membrane vesicle
[28] = molecular target: T1, ATP-binding cassette sub-family C member 4 (Homo sapiens, UniProt O15439); assay: Inhibition of MRP4 (unknown origin) in presence of ATP by membrane vesicular transport assay; type: cell membranes, Membrane vesicle
T1 sequence (O15439 whole entry): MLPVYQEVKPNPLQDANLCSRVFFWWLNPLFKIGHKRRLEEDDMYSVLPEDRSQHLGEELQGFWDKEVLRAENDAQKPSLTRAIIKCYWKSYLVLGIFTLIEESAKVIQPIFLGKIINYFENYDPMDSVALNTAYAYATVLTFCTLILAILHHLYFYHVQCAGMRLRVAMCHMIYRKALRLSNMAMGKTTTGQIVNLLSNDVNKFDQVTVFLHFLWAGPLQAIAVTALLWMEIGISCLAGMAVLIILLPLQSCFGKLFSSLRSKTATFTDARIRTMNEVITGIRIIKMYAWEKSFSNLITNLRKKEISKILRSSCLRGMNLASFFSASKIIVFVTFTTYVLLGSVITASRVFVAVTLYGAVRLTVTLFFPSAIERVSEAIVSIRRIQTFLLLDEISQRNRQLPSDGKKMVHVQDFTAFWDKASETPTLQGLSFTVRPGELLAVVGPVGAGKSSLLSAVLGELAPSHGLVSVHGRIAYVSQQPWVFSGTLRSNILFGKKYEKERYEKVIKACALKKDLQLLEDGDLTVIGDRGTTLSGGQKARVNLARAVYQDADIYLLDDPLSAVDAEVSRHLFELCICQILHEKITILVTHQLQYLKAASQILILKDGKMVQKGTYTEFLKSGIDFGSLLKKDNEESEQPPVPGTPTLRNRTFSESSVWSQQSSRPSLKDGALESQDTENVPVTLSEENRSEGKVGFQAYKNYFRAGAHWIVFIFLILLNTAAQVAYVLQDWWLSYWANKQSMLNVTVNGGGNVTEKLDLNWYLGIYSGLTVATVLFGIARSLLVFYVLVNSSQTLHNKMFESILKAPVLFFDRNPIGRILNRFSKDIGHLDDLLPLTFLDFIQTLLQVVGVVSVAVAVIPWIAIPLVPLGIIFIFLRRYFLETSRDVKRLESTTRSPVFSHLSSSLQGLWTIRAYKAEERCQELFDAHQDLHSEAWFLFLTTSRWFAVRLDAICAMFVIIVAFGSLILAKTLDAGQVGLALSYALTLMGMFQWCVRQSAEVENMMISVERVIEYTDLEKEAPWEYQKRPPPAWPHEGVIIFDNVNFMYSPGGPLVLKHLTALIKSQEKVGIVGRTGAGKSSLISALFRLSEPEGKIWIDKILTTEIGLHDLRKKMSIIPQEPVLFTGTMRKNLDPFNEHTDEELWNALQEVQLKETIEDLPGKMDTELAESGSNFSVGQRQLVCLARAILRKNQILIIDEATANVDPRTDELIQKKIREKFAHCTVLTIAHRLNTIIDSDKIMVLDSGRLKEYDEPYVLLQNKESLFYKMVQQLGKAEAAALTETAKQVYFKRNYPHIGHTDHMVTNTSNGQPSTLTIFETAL

[29] = molecular target: T2, Solute carrier organic anion transporter family member 1B1 (Homo sapiens, UniProt Q9Y6L6); assay: Inhibition of human OATP1B1 in HEK293 cells; type: cell-based
T2 sequence (Q9Y6L6 whole entry): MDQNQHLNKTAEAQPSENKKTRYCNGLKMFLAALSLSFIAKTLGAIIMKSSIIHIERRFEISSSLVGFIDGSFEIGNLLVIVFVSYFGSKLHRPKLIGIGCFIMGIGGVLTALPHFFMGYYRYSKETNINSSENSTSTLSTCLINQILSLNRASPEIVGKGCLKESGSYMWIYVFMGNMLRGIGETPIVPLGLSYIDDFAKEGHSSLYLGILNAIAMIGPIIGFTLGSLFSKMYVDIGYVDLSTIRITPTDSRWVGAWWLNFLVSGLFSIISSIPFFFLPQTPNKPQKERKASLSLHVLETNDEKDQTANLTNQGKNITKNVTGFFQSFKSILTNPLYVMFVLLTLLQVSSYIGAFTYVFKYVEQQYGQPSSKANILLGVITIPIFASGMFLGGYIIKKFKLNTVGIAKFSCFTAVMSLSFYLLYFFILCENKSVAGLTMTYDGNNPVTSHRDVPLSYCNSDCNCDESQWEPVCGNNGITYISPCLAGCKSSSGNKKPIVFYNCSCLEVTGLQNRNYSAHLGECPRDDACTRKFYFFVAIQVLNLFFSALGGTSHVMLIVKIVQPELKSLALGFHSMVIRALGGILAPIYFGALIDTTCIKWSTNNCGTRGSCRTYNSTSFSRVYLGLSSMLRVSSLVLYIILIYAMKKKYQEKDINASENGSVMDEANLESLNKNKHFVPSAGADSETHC

[30] = molecular target: T3, Solute carrier organic anion transporter family member 1B3 (Homo sapiens, UniProt Q9NPD5); assay: Inhibition of human OATP1B3 in HEK293 cells; type: cell-based
T3 sequence (Q9NPD5 whole entry): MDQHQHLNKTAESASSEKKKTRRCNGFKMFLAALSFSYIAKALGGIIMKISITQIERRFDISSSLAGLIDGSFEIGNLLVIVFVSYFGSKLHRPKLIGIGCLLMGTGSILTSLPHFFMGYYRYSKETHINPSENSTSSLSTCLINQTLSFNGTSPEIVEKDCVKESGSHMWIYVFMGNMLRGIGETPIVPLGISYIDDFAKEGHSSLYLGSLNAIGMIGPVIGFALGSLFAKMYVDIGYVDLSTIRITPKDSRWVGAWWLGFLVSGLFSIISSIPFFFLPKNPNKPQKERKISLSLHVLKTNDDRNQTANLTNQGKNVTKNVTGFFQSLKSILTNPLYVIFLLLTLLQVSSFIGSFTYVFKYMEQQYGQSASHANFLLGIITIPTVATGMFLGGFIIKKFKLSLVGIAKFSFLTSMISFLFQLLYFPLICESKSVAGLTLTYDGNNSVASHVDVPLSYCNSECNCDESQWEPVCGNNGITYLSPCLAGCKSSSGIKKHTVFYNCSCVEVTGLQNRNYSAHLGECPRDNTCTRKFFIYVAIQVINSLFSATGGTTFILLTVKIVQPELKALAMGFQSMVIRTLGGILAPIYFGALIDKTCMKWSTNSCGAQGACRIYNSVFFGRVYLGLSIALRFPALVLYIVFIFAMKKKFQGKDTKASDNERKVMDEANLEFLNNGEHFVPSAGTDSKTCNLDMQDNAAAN

[31] = test system: Mus musculus; assay: Antifibrotic activity against bleomycin-induced lung fibrosis in male C57Bl/6 mouse model assessed as reduction in ashcroft score at 50 mg/kg, po bid administered from day 7 to 21 relative to control; type: functional; parameters: scale not given: the % may be the effect or the level left; details: time 15 day

Chain of Bile salt export pump (O95342 whole entry): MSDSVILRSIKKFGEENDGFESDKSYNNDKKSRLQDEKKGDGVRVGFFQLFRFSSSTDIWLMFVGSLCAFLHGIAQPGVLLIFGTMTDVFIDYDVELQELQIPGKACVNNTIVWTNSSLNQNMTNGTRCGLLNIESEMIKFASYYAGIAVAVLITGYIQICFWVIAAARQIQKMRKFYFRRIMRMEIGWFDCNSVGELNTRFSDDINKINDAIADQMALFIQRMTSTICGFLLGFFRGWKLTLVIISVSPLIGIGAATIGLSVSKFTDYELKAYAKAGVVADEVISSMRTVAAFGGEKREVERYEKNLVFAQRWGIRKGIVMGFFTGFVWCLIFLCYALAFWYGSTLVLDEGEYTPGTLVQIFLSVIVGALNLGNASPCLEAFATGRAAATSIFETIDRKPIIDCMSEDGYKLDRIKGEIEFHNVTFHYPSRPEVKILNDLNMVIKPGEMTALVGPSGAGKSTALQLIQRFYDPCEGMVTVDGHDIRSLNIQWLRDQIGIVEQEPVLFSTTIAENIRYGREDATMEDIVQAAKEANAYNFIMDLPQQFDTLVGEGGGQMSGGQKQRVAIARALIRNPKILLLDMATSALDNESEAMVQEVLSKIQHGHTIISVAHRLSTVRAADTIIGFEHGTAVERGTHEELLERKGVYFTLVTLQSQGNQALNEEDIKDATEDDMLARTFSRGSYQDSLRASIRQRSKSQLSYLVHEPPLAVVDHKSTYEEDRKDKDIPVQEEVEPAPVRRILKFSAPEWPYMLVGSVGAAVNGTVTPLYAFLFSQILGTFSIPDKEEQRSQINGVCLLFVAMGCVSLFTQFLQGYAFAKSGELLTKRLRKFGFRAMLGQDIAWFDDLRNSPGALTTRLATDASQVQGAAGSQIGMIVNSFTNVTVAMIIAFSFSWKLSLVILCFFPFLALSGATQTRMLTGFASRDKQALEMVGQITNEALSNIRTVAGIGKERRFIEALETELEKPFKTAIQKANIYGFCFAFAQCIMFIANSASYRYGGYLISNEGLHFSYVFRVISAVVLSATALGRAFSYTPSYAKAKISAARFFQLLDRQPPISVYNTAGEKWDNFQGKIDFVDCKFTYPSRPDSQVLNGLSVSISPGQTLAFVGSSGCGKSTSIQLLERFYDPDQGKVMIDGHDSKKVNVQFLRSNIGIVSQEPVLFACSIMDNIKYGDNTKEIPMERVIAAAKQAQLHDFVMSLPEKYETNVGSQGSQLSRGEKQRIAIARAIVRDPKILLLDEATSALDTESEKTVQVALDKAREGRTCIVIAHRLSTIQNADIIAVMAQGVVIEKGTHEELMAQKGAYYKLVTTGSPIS
Chain of Lysophosphatidic acid receptor 1 (Mus musculus, UniProt P61793) (P61793 whole entry): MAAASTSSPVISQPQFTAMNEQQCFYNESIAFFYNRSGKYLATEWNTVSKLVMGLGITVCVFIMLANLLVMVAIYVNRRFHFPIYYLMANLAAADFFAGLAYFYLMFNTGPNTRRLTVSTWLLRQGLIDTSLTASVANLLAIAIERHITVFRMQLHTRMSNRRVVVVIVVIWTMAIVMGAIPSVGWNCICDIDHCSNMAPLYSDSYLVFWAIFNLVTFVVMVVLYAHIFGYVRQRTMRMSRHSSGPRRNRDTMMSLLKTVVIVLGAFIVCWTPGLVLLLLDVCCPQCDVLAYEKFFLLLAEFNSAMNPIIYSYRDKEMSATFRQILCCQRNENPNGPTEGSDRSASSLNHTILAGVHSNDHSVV
Chain of BSEP (O95342 whole entry): as the sequence (O95342 whole entry) above
Chain of ATP-binding cassette sub-family C member 2 (Q92887 whole entry): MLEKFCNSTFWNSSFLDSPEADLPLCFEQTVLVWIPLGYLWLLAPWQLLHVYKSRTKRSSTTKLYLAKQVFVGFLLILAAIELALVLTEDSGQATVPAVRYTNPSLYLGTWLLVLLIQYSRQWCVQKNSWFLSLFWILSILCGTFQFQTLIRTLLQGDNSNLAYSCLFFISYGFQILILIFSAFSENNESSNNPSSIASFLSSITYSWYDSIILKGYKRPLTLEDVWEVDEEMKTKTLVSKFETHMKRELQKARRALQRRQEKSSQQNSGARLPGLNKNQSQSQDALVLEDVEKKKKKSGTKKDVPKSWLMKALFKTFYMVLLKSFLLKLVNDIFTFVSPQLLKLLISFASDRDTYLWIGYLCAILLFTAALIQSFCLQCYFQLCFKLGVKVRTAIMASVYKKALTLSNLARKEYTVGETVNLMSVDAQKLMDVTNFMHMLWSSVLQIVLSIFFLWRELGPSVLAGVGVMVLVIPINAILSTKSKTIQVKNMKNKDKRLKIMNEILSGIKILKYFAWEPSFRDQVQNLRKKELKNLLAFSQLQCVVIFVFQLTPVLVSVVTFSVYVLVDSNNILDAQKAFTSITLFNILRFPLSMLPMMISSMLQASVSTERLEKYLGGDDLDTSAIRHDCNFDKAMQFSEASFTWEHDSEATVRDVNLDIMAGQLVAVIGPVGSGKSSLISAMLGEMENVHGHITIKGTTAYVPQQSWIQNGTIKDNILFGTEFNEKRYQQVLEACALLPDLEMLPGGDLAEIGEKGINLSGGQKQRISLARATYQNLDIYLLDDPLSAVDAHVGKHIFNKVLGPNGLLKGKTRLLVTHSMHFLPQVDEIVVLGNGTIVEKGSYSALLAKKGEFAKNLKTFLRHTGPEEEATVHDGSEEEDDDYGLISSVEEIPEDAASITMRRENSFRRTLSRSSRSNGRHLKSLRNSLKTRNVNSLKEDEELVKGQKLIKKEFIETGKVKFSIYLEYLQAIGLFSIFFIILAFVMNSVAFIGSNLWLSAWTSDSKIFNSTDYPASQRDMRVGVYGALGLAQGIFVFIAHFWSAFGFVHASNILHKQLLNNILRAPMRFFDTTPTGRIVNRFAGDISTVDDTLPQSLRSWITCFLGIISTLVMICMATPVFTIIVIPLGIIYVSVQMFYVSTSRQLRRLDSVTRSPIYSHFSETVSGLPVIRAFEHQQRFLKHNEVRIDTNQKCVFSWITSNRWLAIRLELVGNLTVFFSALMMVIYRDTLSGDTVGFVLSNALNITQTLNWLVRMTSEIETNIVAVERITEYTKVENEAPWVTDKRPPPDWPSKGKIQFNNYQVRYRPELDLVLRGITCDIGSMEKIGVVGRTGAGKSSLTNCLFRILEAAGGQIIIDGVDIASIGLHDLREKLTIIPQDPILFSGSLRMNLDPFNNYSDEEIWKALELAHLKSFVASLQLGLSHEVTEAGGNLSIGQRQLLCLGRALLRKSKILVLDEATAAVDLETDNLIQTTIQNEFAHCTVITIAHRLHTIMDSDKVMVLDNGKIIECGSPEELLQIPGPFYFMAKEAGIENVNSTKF
Chain of Lysophosphatidic acid receptor 1 (Homo sapiens, UniProt Q92633) (Q92633 whole entry): as the sequence (P61793 whole entry) above, with A4I, S8I, Q22P, Y40H, V61I, D193E, H194N, V269I, N331S, N335T counted along it
Chain of Phosphatidylcholine translocator ABCB4 (P21439 whole entry): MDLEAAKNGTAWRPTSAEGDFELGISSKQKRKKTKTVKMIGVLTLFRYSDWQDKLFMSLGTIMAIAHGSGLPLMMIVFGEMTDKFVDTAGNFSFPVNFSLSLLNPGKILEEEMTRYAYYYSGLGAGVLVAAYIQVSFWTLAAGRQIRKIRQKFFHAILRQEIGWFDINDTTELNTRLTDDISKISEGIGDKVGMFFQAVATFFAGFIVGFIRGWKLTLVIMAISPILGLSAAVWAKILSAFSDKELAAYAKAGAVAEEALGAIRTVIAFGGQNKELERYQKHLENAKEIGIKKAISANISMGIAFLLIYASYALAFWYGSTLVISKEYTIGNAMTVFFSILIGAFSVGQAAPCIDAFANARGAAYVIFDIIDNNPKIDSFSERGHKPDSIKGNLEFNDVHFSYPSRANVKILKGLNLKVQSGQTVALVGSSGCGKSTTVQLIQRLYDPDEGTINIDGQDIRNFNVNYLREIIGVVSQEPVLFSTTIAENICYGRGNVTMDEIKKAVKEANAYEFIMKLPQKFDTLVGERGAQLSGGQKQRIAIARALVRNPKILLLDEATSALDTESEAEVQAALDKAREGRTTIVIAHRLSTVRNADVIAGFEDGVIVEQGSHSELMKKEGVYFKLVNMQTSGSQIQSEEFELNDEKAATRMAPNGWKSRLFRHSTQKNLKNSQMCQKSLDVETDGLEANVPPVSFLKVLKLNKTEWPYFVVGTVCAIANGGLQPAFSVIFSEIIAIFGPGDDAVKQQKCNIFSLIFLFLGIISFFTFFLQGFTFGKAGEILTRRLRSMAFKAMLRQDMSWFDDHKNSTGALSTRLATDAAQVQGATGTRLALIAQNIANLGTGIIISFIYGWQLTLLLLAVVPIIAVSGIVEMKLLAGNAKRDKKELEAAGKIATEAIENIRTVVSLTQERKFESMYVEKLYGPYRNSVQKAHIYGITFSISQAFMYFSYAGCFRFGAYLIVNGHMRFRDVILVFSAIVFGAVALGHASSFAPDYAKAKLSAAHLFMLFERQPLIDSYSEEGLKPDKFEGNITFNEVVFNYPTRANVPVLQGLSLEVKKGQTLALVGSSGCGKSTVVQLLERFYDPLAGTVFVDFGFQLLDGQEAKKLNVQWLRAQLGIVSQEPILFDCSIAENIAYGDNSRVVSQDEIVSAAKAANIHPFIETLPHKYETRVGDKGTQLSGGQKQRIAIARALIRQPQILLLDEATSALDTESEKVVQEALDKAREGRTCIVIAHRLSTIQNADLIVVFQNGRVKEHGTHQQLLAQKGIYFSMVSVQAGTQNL

Cc1nc(-c2nnn(C)c2NC(=O)O[C@H](C)c2ccccc2Cl)ccc1NC(=O)[C@H]1CCCC[C@@H]1C(=O)O
IC50 [1]: 31.6 nM | chromatographic logD [2]: 1.18 | microsomal CLint at 0.5 µM [3]: 2.7 µL/min/mg | microsomal CLint at 0.5 µM [4]: 0.4 µL/min/mg | inhibition at 50 µM [5]: 16% | IC50 [6]: 15.8 nM | solubility [7]: 318 µM (≈ 172 µg/mL) | IC50 [8]: > 100000 nM | ED50 [9]: 0.1 mg/kg | IC50 [10]: 37.2 nM | clearance [11]: 17.1 mL/min/kg | Vd [12]: 2.1 L/kg | bioavailability [13]: 22% | half-life [14]: 4.19 h | Cmax [15]: 3930 ng/mL | fCmax [16]: 251 ng/mL | AUClast [17]: 6720 h/ng/mL | fAUClast [18]: 430 h/ng/mL | Tlast [19]: 8 h | Cmax [20]: 2620 ng/mL | fCmax [21]: 167 ng/mL | AUClast [22]: 4040 h/ng/mL | fAUClast [23]: 257 h/ng/mL | Tlast [24]: 24 h

Cc1noc(-c2ccc(-c3ccc(C4(C(=O)O)CC4)cc3)cc2)c1NC(=O)O[C@H](C)c1ccccc1 [BMS-986020]
IC50 [8]: 2000 nM | IC50 [25]: 7940 nM | IC50 [26]: 50100 nM | IC50 [27]: 20000 nM | IC50 [28]: 6310 nM | IC50 [29]: 158 nM | IC50 [30]: 631 nM

COC(=O)c1ccc2c(c1)NC(=O)/C2=C(\Nc1ccc(N(C)C(=O)CN2CCN(C)CC2)cc1)c1ccccc1 [NINTEDANIB]
Activity [31]: 23%
